Test results reported in US9957271B2, “Substituted bicyclic aza-heterocycles and analogues as sirtuin modulators” (GlaxoSmithKline, LLC, priority 2012, dated 2018).

Columns and labels:
[1] = biological target: T1, SIRT1 (Homo sapiens, UniProt Q96EB6); assay: TAMRA based mass spectrometry assay of SIRT1 activity; assay type: biochemical; conditions: TAMRA assay; for TAMRA EC1.5 (μM): concentration giving 150% activation of SIRT1; for Emax: percent maximum fold activation, read-out: TAMRA % Fold Act
T1 sequence (Q96EB6 1-747): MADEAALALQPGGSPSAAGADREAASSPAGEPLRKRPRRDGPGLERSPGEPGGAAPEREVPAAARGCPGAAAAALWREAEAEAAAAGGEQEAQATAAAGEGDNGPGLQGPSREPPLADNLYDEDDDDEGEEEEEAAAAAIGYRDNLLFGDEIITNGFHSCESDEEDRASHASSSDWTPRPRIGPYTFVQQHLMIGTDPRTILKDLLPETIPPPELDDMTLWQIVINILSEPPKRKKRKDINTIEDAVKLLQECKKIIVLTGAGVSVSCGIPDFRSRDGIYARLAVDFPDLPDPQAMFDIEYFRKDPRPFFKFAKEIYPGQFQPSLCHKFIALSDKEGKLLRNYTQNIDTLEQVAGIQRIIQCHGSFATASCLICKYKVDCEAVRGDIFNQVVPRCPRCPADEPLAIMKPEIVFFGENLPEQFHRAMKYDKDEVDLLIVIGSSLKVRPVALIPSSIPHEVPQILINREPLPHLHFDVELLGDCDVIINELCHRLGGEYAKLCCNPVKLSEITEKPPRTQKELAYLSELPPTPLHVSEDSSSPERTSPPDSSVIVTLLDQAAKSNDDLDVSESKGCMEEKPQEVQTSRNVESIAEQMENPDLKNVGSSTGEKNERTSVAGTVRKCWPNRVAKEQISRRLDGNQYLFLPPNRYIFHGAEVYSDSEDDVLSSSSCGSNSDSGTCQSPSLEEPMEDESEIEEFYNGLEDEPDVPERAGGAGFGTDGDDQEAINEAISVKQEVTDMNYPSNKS
Method in brief: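 Deacetylation of a biotinylated, TAMRA-tagged p53-based peptide (0.5 μM) by 10 nM His-tagged SIRT1 with 120 μM βNAD+, 25 °C for 25 min, pH 8 Tris-acetate buffer, across a compound concentration range. Quenched by formic acid and read by mass spec as product peptide or OAADPR; activity relative to DMSO reactions, nicotinamide defining maximal inhibition.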

[2] = biological target: T1, SIRT1; assay: Trp mass spectrometry assay of SIRT1 activity; assay type: biochemical; conditions: Trp assay; for Trp EC1.5 (μM): concentration giving 150% activation of SIRT1; for Emax: percent maximum fold activation, read-out: Trp % Fold Act
Method in brief: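 Activation readout: EC1.5 (concentration raising activity 50% over control) and percent maximum activation, from mass-spec quantitation of OAADPR or deacetylated Trp peptide. Reaction: 0.5 μM acetylated Trp peptide, 120 μM βNAD+, 10 nM bacterially expressed N-His SIRT1, pH 7.5 HEPES buffer with […], 25 min at 25° C.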

| TAMRA EC1.5 (μM) [1] | Emax [1] [%] | Trp EC1.5 (μM) [2] | Emax [2] [%] | Compound |
| --- | --- | --- | --- | --- |
| A (EC1.5<1 μM) | ≥ 350 | A (EC1.5<1 μM) | ≥ 350 | O=C(Nc1cncc(OCC(O)CO)n1)c1cnc2ccc(-c3ccccc3C(F)(F)F)nn12 (stereo not shown) [Compound 213] |
| C (EC1.5>25 μM) | < 350 | C (EC1.5>25 μM) | < 350 | O=C(Nc1cnc2ccc(-c3ccccc3C(F)(F)F)nn12)c1ccnc(CN2CCCC2)c1 [Compound 214] |
| C (EC1.5>25 μM) | < 350 | C (EC1.5>25 μM) | < 350 | O=C(Nc1cccnc1N1CCOCC1)c1cnc2ccc(-c3ccccc3C(F)(F)F)nn12 [Compound 215] |
| A (EC1.5<1 μM) | ≥ 350 | B (EC1.5 1-25 μM) | < 350 | O=C(Nc1cnc2ccc(-c3ccccc3C(F)(F)F)nn12)c1cscn1 [Compound 218] |
| A (EC1.5<1 μM) | ≥ 350 | B (EC1.5 1-25 μM) | < 350 | Cc1cc(C)nc(C(=O)Nc2cnc3ccc(-c4ccccc4C(F)(F)F)nn23)n1 [Compound 221] |
| B (EC1.5 1-25 μM) | ≥ 350 | B (EC1.5 1-25 μM) | ≥ 350 | Cc1cc2ncc(C(=O)Nc3ccncc3)n2nc1-c1ccccc1C(F)(F)F [Compound 223, 7-methyl-N-(pyridin-4-yl)-6-(2-(trifluoromethyl)phenyl)imidazo[1,2-b]pyridazine-3-carboxamide] |
| B (EC1.5 1-25 μM) | ≥ 350 | B (EC1.5 1-25 μM) | ≥ 350 | Cc1cc2ncc(C(=O)Nc3ccccn3)n2nc1-c1ccccc1C(F)(F)F [Compound 224] |
| A (EC1.5<1 μM) | ≥ 350 | B (EC1.5 1-25 μM) | ≥ 350 | Cc1c(-c2ccccc2C(F)(F)F)nn2c(C(=O)Nc3cccc(N4CCOCC4)n3)cnc2c1C [Compound 227] |
| A (EC1.5<1 μM) | ≥ 350 | C (EC1.5>25 μM) | < 350 | Cc1cc(C)nc(NC(=O)c2cnc3c(C)c(C)c(-c4ccccc4Cl)nn23)c1 [Compound 230] |
| B (EC1.5 1-25 μM) | ≥ 350 | B (EC1.5 1-25 μM) | < 350 | Cc1cncc(C(=O)Nc2cnc3ccc(-c4ccccc4C(F)(F)F)nn23)c1 [Compound 231] |
| A (EC1.5<1 μM) | ≥ 350 | C (EC1.5>25 μM) | < 350 | Cc1ccnc(C(=O)Nc2cnc3ccc(-c4ccccc4C(F)(F)F)nn23)c1 [Compound 233] |
| A (EC1.5<1 μM) | ≥ 350 | A (EC1.5<1 μM) | ≥ 350 | O=C(Nc1cnc2ccc(-c3ccccc3C(F)(F)F)nn12)c1cccc(OC[C@H](O)CO)n1 [Compound 236] |
| A (EC1.5<1 μM) | ≥ 350 | C (EC1.5>25 μM) | < 350 | Cc1cc(NC(=O)c2cnc3ccc(-c4ccccc4C(F)(F)F)nn23)nc(C)n1 [Compound 238] |
| B (EC1.5 1-25 μM) | ≥ 350 | B (EC1.5 1-25 μM) | ≥ 350 | O=C(Nc1cccnc1)c1cnn2ccc(-c3ccccc3C(F)(F)F)nc12 [Compound 239] |
| B (EC1.5 1-25 μM) | < 350 | B (EC1.5 1-25 μM) | < 350 | Cc1cc(NC(=O)c2cnc3ccc(-c4ccccc4F)nn23)ccn1 [Compound 242] |
| B (EC1.5 1-25 μM) | < 350 | A (EC1.5<1 μM) | < 350 | COc1cccc(NC(=O)c2cnc3ccc(-c4ccccc4F)nn23)n1 [Compound 244] |
